From the NIST ThermoML archive (doi:10.1016/j.fluid.2018.06.013)
± gives the expanded uncertainty stated by the source.

Experiment: activity coefficient (dimensionless); of the first substance listed, at infinite dilution; xn = mol fraction of the nth substance listed
Details: 100 kPa, Liquid, Chromatography, x1 = 0

| activity coefficient (313.15 K) | activity coefficient (323.15 K) | activity coefficient (343.15 K) | activity coefficient (363.15 K) | activity coefficient (373.15 K) | Structure (SMILES) |
| --- | --- | --- | --- | --- | --- |
| 17.2 ± 1.8 | 16.9 ± 1.8 | 16.9 ± 1.8 | 16.7 ± 1.8 | 16.1 ± 1.7 | CCOC(C)(C)C [2-ethoxy-2-methylpropane] + CCCC[N+]1(C)CCCC1.N#CN=C=[N-] |
| 0.649 ± 0.068 | 0.645 ± 0.068 | 0.648 ± 0.068 | 0.665 ± 0.07 | 0.638 ± 0.067 | CCCO [propan-1-ol] + CCCC[N+]1(C)CCCC1.N#CN=C=[N-] |
| 1.49 ± 0.15 | 1.54 ± 0.16 | 1.7 ± 0.18 | 1.8 ± 0.19 | 1.9 ± 0.2 | C=Cc1ccccc1 [styrene] + CCCC[N+]1(C)CCCC1.N#CN=C=[N-] |
| 0.659 ± 0.069 | 0.668 ± 0.07 | 0.693 ± 0.072 | 0.72 ± 0.08 | 0.728 ± 0.076 | CC#N [acetonitrile] + CCCC[N+]1(C)CCCC1.N#CN=C=[N-] |
